{"source": "patent US20130165635A1", "about": "(priority 2010, published 2013)", "test_system": "Trichophyton mentagrophytes", "type": "cell-based", "note": "Numbered stars: 1 amine (or outer) side, 2 acyl side, 3 side chain; on linkers, the order of the positions; unused ones are H or OH. Bridge positions count the residues as written; N and C are the ends. Square brackets hold non-standard residues; d marks the D form. Peptide text beside a SMILES is read from it. X1 = CC(C)CCCCCCCCC[C@H](CC(=O)[*:1])O[*:2]"}
{"smiles": "CC(C)CCCCCCCCC[C@@H]1CC(=O)N[C@@H](CCC(=O)O)C(=O)N[C@@H](CC(C)C)C(=O)N[C@H](CC(C)C)C(=O)N[C@@H](C(C)C)C(=O)N[C@@H](CC(=O)O)C(=O)N[C@H](CC(C)C)C(=O)N[C@@H](CC(C)C)C(=O)O1", "note": "[surfactin] (EL[dL]VD[dL]L; linker N-C via X1)", "values": [{"measurement": "antifungal activity (growth inhibition of test microorganism)", "value": "weaker than iturin A, but slight inhibitory activities"}]}
